Laboratory results taken from patent US6489469B1, “Method for storing or transporting erythritol solution” (Nikken Chemicals Co., Ltd., priority 1999, dated 2002).

Legend:
[1] = test system: Bacillus subtilis IFO 3134; assay: Viable Count of Bacillus subtilis IFO 3134 in Erythritol Solution; type: cell-based
Protocol: (§1) Erythritol solutions of respective concentrations in the range of from 30 to 60% were prepared. To these were inoculated Staphylococcus aureus IFO 13276, Bacillus subtilis IFO 3134, and Escherichia coli IFO 3972 as bacteria, Candida albicans IFO 1549 and Saccharomyces cerevisiae ATCC 9763 as yeasts, Aspergillus niger IFO 6342, Aspergillus flavus IFO 6343, and Penicillium funiculosum IFO 6345 as fungi, respectively, in a population (concentration) of 10,000 cells/mL or more. After the inoculation, the solutions were stored at 30, 37, 45, 50, or 60° C., respectively, for 56 days and the number of viable cell was determined daily. The determination of the number of viable cell was performed by a method of coating 0.1 mL of appropriately diluted sample cultivation on an agar plate and cultivating and counting the number of viable cell (the number of colony) that grew after the cultivation.

[2] = test system: Aspergillus flavus IFO 6343; assay: Viable Count of Aspergillus flavus IFO 6343 in Erythritol Solution; type: cell-based
Protocol: as §1

OC[C@@H](O)[C@@H](O)CO [Erythritol Solution, erythritol]
1000 cells/mL: The Number of Viable Cell ([1]; 37° C., 30% w/w, Day 28)
≥ 10000 cells/mL: The Number of Viable Cell ([2]; 45° C., 30% w/w, Day 0) | The Number of Viable Cell ([2]; 45° C., 30% w/w, Day 3) | The Number of Viable Cell ([2]; 45° C., 30% w/w, Day 7) | The Number of Viable Cell ([2]; 45° C., 30% w/w, Day 14) | The Number of Viable Cell ([2]; 45° C., 40% w/w, Day 0) | The Number of Viable Cell ([2]; 45° C., 40% w/w, Day 3) | The Number of Viable Cell ([2]; 45° C., 40% w/w, Day 7) | The Number of Viable Cell ([2]; 45° C., 40% w/w, Day 14) | The Number of Viable Cell ([2]; 45° C., 50% w/w, Day 0) | The Number of Viable Cell ([2]; 45° C., 50% w/w, Day 3) | The Number of Viable Cell ([2]; 45° C., 50% w/w, Day 7) | The Number of Viable Cell ([2]; 50° C., 30% w/w, Day 0) | The Number of Viable Cell ([2]; 50° C., 40% w/w, Day 0) | The Number of Viable Cell ([2]; 50° C., 50% w/w, Day 0)
10000 or more cells/mL: The Number of Viable Cell ([1]; 37° C., 40% w/w, Day 0) | The Number of Viable Cell ([1]; 45° C., 30% w/w, Day 0) | The Number of Viable Cell ([1]; 45° C., 50% w/w, Day 0) | The Number of Viable Cell ([1]; 50° C., 30% w/w, Day 0) | The Number of Viable Cell ([1]; 50° C., 40% w/w, Day 0) | The Number of Viable Cell ([1]; 50° C., 50% w/w, Day 0)
3 days: time after which microbes died ([1]; temperature of 50° C. or more) | time after which microbes died ([2]; temperature of 50° C. or more)
0 cells/mL: The Number of Viable Cell ([1]; 37° C., 30% w/w, Day 56) | The Number of Viable Cell ([1]; 37° C., 40% w/w, Day 3) | The Number of Viable Cell ([1]; 37° C., 40% w/w, Day 7) | The Number of Viable Cell ([1]; 37° C., 40% w/w, Day 14) | The Number of Viable Cell ([1]; 37° C., 40% w/w, Day 28) | The Number of Viable Cell ([1]; 37° C., 40% w/w, Day 56) | The Number of Viable Cell ([1]; 45° C., 30% w/w, Day 14) | The Number of Viable Cell ([1]; 45° C., 30% w/w, Day 28) | The Number of Viable Cell ([1]; 45° C., 30% w/w, Day 56) | The Number of Viable Cell ([1]; 45° C., 50% w/w, Day 7) | The Number of Viable Cell ([1]; 45° C., 50% w/w, Day 14) | The Number of Viable Cell ([1]; 45° C., 50% w/w, Day 28) | The Number of Viable Cell ([1]; 45° C., 50% w/w, Day 56) | The Number of Viable Cell ([1]; 50° C., 30% w/w, Day 3) | The Number of Viable Cell ([1]; 50° C., 30% w/w, Day 7) | The Number of Viable Cell ([1]; 50° C., 30% w/w, Day 14) | The Number of Viable Cell ([1]; 50° C., 30% w/w, Day 28) | The Number of Viable Cell ([1]; 50° C., 30% w/w, Day 56) | The Number of Viable Cell ([1]; 50° C., 40% w/w, Day 3) | The Number of Viable Cell ([1]; 50° C., 40% w/w, Day 7) | The Number of Viable Cell ([1]; 50° C., 40% w/w, Day 14) | The Number of Viable Cell ([1]; 50° C., 40% w/w, Day 28) | The Number of Viable Cell ([1]; 50° C., 40% w/w, Day 56) | The Number of Viable Cell ([1]; 50° C., 50% w/w, Day 3) | The Number of Viable Cell ([1]; 50° C., 50% w/w, Day 7) | The Number of Viable Cell ([1]; 50° C., 50% w/w, Day 14) | The Number of Viable Cell ([1]; 50° C., 50% w/w, Day 28) | The Number of Viable Cell ([1]; 50° C., 50% w/w, Day 56) | The Number of Viable Cell ([2]; 45° C., 30% w/w, Day 28) | The Number of Viable Cell ([2]; 45° C., 30% w/w, Day 56) | The Number of Viable Cell ([2]; 45° C., 40% w/w, Day 28) | The Number of Viable Cell ([2]; 45° C., 40% w/w, Day 56) | The Number of Viable Cell ([2]; 45° C., 50% w/w, Day 14) | The Number of Viable Cell ([2]; 45° C., 50% w/w, Day 28) | The Number of Viable Cell ([2]; 45° C., 50% w/w, Day 56) | The Number of Viable Cell ([2]; 50° C., 30% w/w, Day 3) | The Number of Viable Cell ([2]; 50° C., 30% w/w, Day 7) | The Number of Viable Cell ([2]; 50° C., 30% w/w, Day 14) | The Number of Viable Cell ([2]; 50° C., 30% w/w, Day 28) | The Number of Viable Cell ([2]; 50° C., 30% w/w, Day 56) | The Number of Viable Cell ([2]; 50° C., 40% w/w, Day 3) | The Number of Viable Cell ([2]; 50° C., 40% w/w, Day 7) | The Number of Viable Cell ([2]; 50° C., 40% w/w, Day 14) | The Number of Viable Cell ([2]; 50° C., 40% w/w, Day 28) | The Number of Viable Cell ([2]; 50° C., 40% w/w, Day 56) | The Number of Viable Cell ([2]; 50° C., 50% w/w, Day 3) | The Number of Viable Cell ([2]; 50° C., 50% w/w, Day 7) | The Number of Viable Cell ([2]; 50° C., 50% w/w, Day 14) | The Number of Viable Cell ([2]; 50° C., 50% w/w, Day 28) | The Number of Viable Cell ([2]; 50° C., 50% w/w, Day 56)
110 cells/mL: The Number of Viable Cell ([1]; 45° C., 30% w/w, Day 7)
30 cells/mL: The Number of Viable Cell ([1]; 45° C., 50% w/w, Day 3)
prevented from growing: growth of the microbes ([1]; temperature of 50° C. or more) | growth of the microbes ([2]; temperature of 50° C. or more)
